Measurements: ChEMBL document CHEMBL1201862, “PubChem BioAssay data set” (2004)
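In this assay, cells in 96-well plates receive the compound at five concentrations for 48 hours. Endpoints are linearly interpolated between the surrounding concentrations. GI50 is the concentration that inhibits growth by half.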 Activity calls are given as the source filed them. No stated cut-off is given here; in the data, active = GI50 up to about 1.1 µM and inactive = higher.

What was measured:
Assay in all cases: growth of human tumour cells (NCI), 48 h
Malme-3M = system: Malme-3M
ACHN = system: ACHN
IGROV-1 = system: IGROV-1
OVCAR-4 = system: OVCAR-4
MOLT-4 = system: MOLT-4
OVCAR-8 = system: OVCAR-8
HCT-15 = system: HCT-15
OVCAR-5 = system: OVCAR-5
SW-620 = system: SW-620
UACC-62 = system: UACC-62
SR = system: SR
KM12 = system: KM12
RXF 393 = system: RXF 393
HCT-116 = system: HCT-116
DMS-114 = system: DMS-114
HOP-62 = system: HOP-62
HL-60 = system: HL-60
SK-MEL-5 = system: SK-MEL-5
SK-OV-3 = system: SK-OV-3
DMS-273 = system: DMS-273
M14 = system: M14
SF-268 = system: SF-268
U-251 = system: U-251
SF-539 = system: SF-539
DLD-1 = system: DLD-1
LOX IMVI = system: LOX IMVI
SNB-19 = system: SNB-19
NCI-H226 = system: NCI-H226
NCI-H522 = system: NCI-H522
A498 = system: A498
SK-MEL-2 = system: SK-MEL-2
M19-MEL = system: M19-MEL
TK-10 = system: TK-10
A549 = system: A549
COLO 205 = system: COLO 205
786-0 = system: 786-0
RXF 631 = system: RXF 631
HCC 2998 = system: HCC 2998
OVCAR-3 = system: OVCAR-3
CCRF-CEM = system: CCRF-CEM
KM-20L2 = system: KM-20L2
HT-29 = system: HT-29
SN12C = system: SN12C
HOP-18 = system: HOP-18
UO-31 = system: UO-31
SK-MEL-28 = system: SK-MEL-28
HOP-92 = system: HOP-92
NCI-H460 = system: NCI-H460
K562 = system: K562
NCI-H23 = system: NCI-H23
EKVX = system: EKVX
CAKI-1 = system: CAKI-1
SNB-75 = system: SNB-75
UACC-257 = system: UACC-257
SF-295 = system: SF-295
SNB-78 = system: SNB-78
RPMI-8226 = system: RPMI-8226
LXFL 529 = system: LXFL 529

Measured: GI50

Cc1cc(S(=O)(=O)O)c(NC(=O)C(=O)Cc2cc(=O)oc3cc(O)ccc23)cc1Cl
inactive: Malme-3M > 100 µM | ACHN > 100 µM | IGROV-1 > 100 µM | OVCAR-4 > 100 µM | MOLT-4 > 100 µM | OVCAR-8 > 100 µM | OVCAR-5 > 100 µM | SW-620 > 100 µM | UACC-62 > 100 µM | SR > 100 µM | KM12 > 100 µM | RXF 393 > 100 µM | HCT-116 > 100 µM | DMS-114 > 100 µM | HOP-62 > 100 µM | HL-60 > 100 µM | SK-MEL-5 > 100 µM | SK-OV-3 > 100 µM | DMS-273 > 100 µM | M14 > 100 µM | SF-268 > 100 µM | U-251 > 100 µM | SF-539 > 100 µM | DLD-1 > 100 µM | LOX IMVI > 100 µM | SNB-19 > 100 µM | NCI-H226 > 100 µM | NCI-H522 > 100 µM | A498 > 100 µM | SK-MEL-2 > 100 µM | M19-MEL > 100 µM | TK-10 > 100 µM | A549 > 100 µM | COLO 205 > 100 µM | 786-0 > 100 µM | RXF 631 > 100 µM | HCC 2998 > 100 µM | OVCAR-3 > 100 µM | CCRF-CEM > 100 µM | KM-20L2 > 100 µM | HT-29 > 100 µM | SN12C > 100 µM | HOP-18 > 100 µM | UO-31 > 100 µM | SK-MEL-28 > 100 µM | HOP-92 > 100 µM | NCI-H460 > 100 µM | K562 > 100 µM | NCI-H23 > 100 µM | EKVX > 100 µM | CAKI-1 > 100 µM | SNB-75 > 100 µM | UACC-257 > 100 µM | SF-295 > 100 µM
> 100 µM: HCT-15

COc1cc([C@@H]2c3cc4c(cc3[C@@H](OC(=O)c3ccc(N)cc3)C3COC(=O)[C@@H]32)OCO4)cc(OC)c1O (stereo not given in full)
inactive: Malme-3M 12.3 µM | ACHN 7.74 µM | IGROV-1 2.8 µM | OVCAR-4 45.4 µM | MOLT-4 3.1 µM | OVCAR-8 4.49 µM | OVCAR-5 41.5 µM | SNB-78 15.2 µM | SW-620 5.71 µM | UACC-62 4.91 µM | KM12 11.9 µM | RXF 393 2.92 µM | HCT-116 4.45 µM | HOP-62 3.5 µM | RPMI-8226 7.8 µM | HL-60 3.1 µM | SK-MEL-5 3.59 µM | SK-OV-3 3.2 µM | LXFL 529 14.8 µM | DMS-273 3.43 µM | M14 16.8 µM | SF-268 9.59 µM | U-251 4.45 µM | SF-539 2.54 µM | DLD-1 5.6 µM | LOX IMVI 10.6 µM | SNB-19 20.7 µM | NCI-H226 6.97 µM | NCI-H522 2.07 µM | A498 5.82 µM | SK-MEL-2 6.32 µM | M19-MEL 4.99 µM | TK-10 17.6 µM | A549 5.02 µM | COLO 205 5.98 µM | 786-0 7.08 µM | RXF 631 9.1 µM | HCC 2998 12.2 µM | OVCAR-3 12.9 µM | CCRF-CEM 6.18 µM | KM-20L2 1.88 µM | HT-29 3.21 µM | SN12C 4.21 µM | HOP-18 > 95.1 µM | UO-31 10.2 µM | SK-MEL-28 9.48 µM | HOP-92 3.77 µM | NCI-H460 3.73 µM | K562 5.18 µM | NCI-H23 3.32 µM | EKVX 20.2 µM | CAKI-1 8.47 µM | SNB-75 3.21 µM | UACC-257 9.14 µM | SF-295 4.25 µM
12.8 µM: HCT-15

CC1=CCP(C(F)(F)F)P(C(F)(F)F)C1 (stereo not given)
> 100 µM: HCT-15
inactive: Malme-3M > 100 µM | ACHN > 100 µM | IGROV-1 > 100 µM | OVCAR-4 > 100 µM | MOLT-4 > 100 µM | OVCAR-8 > 100 µM | OVCAR-5 > 100 µM | SNB-78 > 100 µM | SW-620 > 100 µM | UACC-62 > 100 µM | SR > 100 µM | KM12 > 100 µM | RXF 393 5.55 µM | HCT-116 > 100 µM | DMS-114 > 100 µM | HOP-62 > 100 µM | RPMI-8226 > 100 µM | HL-60 > 100 µM | SK-MEL-5 > 100 µM | SK-OV-3 > 100 µM | LXFL 529 > 100 µM | M14 > 100 µM | SF-268 > 100 µM | U-251 > 100 µM | SF-539 > 100 µM | DLD-1 > 100 µM | LOX IMVI > 100 µM | SNB-19 > 100 µM | NCI-H226 > 100 µM | NCI-H522 > 100 µM | A498 > 100 µM | M19-MEL > 100 µM | TK-10 > 100 µM | A549 > 100 µM | COLO 205 > 100 µM | 786-0 > 100 µM | RXF 631 > 100 µM | HCC 2998 > 100 µM | OVCAR-3 > 100 µM | CCRF-CEM > 100 µM | KM-20L2 > 100 µM | HT-29 > 100 µM | SN12C > 100 µM | HOP-18 > 100 µM | UO-31 > 100 µM | SK-MEL-28 > 100 µM | HOP-92 > 100 µM | NCI-H460 > 100 µM | K562 > 100 µM | NCI-H23 > 100 µM | EKVX > 100 µM | CAKI-1 > 100 µM | SNB-75 > 100 µM | UACC-257 > 100 µM | SF-295 > 100 µM

CC(C)c1ccccc1NC(=O)C(=O)Cc1nc2ccccc2s1
inactive: Malme-3M > 100 µM | ACHN > 100 µM | IGROV-1 > 100 µM | OVCAR-4 > 100 µM | MOLT-4 > 100 µM | OVCAR-8 > 100 µM | SNB-78 > 100 µM | SW-620 > 100 µM | UACC-62 > 100 µM | SR > 100 µM | KM12 > 100 µM | RXF 393 > 100 µM | HCT-116 > 100 µM | DMS-114 > 100 µM | HOP-62 > 100 µM | HL-60 > 100 µM | SK-MEL-5 > 100 µM | SK-OV-3 > 100 µM | LXFL 529 > 100 µM | DMS-273 > 100 µM | M14 > 100 µM | SF-268 > 100 µM | U-251 > 100 µM | SF-539 > 100 µM | SNB-19 > 100 µM | NCI-H226 > 100 µM | NCI-H522 > 100 µM | A498 > 100 µM | SK-MEL-2 > 100 µM | M19-MEL > 100 µM | TK-10 > 100 µM | A549 > 100 µM | COLO 205 > 100 µM | 786-0 > 100 µM | RXF 631 > 100 µM | HCC 2998 > 100 µM | OVCAR-3 > 100 µM | CCRF-CEM > 100 µM | KM-20L2 > 100 µM | HT-29 > 100 µM | SN12C > 100 µM | HOP-18 > 100 µM | UO-31 > 100 µM | SK-MEL-28 > 100 µM | HOP-92 > 100 µM | NCI-H460 > 100 µM | NCI-H23 > 100 µM | EKVX > 100 µM | CAKI-1 > 100 µM | SNB-75 > 100 µM | UACC-257 > 100 µM | SF-295 > 100 µM
> 100 µM: HCT-15
